Calls of active or inactive are those of the source.
How the values were obtained:
14-3-3 protein gamma = 14-3-3 protein gamma (Homo sapiens, UniProt P61981); assay: modulators of 14-3-3 gamma client binding – dose response (AID 711); type: functional
Procathepsin L = Procathepsin L (Homo sapiens, UniProt P07711); assay: cathepsin L inhibitors, dose response, counter-screen for M1/M17 aminopeptidase inhibitor project, biochemical, QFRET, 1536-well (AID 2214)
Leucine aminopeptidase = target: T1, Leucine aminopeptidase (Plasmodium falciparum 3D7, UniProt Q8IL11); assay: P. falciparum M17LAP inhibitors, primary screen, biochemical, fluorogenic H-Leu-NHMec substrate, 1536-well (AID 1619); type: functional
T1 sequence (Q8IL11 whole entry): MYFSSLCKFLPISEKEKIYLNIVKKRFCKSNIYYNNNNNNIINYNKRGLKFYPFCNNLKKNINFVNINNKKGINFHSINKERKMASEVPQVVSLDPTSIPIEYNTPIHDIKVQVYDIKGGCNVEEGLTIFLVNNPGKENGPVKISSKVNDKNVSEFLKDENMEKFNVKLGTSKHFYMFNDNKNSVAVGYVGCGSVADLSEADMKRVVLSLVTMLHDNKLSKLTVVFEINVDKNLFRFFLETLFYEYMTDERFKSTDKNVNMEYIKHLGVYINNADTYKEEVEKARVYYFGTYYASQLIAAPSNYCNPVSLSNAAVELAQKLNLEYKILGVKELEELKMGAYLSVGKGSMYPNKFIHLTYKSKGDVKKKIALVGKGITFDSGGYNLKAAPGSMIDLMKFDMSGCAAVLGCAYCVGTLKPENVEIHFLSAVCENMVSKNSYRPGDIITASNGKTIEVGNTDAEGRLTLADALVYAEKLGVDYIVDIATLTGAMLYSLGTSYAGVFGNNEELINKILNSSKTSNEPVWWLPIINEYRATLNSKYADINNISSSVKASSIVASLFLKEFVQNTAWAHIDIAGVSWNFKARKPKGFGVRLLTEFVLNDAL

Aspartyl aminopeptidase = Aspartyl aminopeptidase (Plasmodium falciparum 3D7, UniProt Q8I2J3); assay: Counterscreen for inhibitors of M1 and M17 aminopeptidases: QFRET-based biochemical high throughput dose response assay for inhibitors of the Plasmodium falciparum M18 Aspartyl Aminopeptidase (PFM18AAP). [Related PubChem assays: 1619 (Screening assay (M17LAP inhibitors).), 1445 (Screening assay (M1AAP inhibitors).)]
Sequence of Aspartyl aminopeptidase (Q8I2J3 whole entry): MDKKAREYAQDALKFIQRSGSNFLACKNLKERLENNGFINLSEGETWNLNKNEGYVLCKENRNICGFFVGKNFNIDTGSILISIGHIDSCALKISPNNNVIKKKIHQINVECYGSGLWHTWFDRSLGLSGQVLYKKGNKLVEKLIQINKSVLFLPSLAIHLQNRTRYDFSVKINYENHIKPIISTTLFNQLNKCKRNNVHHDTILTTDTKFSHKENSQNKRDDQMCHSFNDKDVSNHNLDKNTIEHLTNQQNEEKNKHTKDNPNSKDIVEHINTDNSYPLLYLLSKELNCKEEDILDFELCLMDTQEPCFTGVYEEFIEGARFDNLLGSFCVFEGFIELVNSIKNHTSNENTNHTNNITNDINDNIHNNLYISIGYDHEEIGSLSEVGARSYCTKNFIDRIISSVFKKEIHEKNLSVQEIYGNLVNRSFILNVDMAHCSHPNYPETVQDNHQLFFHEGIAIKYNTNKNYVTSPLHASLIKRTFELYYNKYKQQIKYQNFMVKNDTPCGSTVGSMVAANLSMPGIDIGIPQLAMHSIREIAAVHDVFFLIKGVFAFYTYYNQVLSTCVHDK

[1] = target: Diphosphomevalonate decarboxylase (Streptococcus pneumoniae serotype 2 (strain D39 / NCTC 7466), UniProt Q9FD53); assay: S. pneumoniae DPM-DC inhibition retest, confirmation, biochemical, cuvette format, coupled NADH fluorescence (AID 1028); type: functional
Sequence of Diphosphomevalonate decarboxylase (Q9FD53 whole entry): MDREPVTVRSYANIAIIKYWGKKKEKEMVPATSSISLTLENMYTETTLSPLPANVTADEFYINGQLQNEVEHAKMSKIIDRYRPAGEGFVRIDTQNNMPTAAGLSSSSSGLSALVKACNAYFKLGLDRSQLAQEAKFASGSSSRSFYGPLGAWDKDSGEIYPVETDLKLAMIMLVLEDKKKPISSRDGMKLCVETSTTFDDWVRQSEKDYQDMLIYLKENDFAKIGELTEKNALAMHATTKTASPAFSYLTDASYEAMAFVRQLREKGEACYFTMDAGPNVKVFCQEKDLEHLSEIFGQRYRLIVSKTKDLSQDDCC

[2] = target: T2, Aryl hydrocarbon receptor (Homo sapiens, UniProt P35869); assay: Luminescence-based cell-based high throughput dose response assay for activators of the Aryl Hydrocarbon Receptor (AHR). [Related pubchem assays: 2796 (Primary screen (AHR activators in singlicate)), 2845 (Confirmation screen (AHR activators in triplicate)), 434939 (Counterscreen (PXR activators in triplicate)), 2804 (Summary (AHR activators))]; type: ADME
T2 sequence (P35869 whole entry): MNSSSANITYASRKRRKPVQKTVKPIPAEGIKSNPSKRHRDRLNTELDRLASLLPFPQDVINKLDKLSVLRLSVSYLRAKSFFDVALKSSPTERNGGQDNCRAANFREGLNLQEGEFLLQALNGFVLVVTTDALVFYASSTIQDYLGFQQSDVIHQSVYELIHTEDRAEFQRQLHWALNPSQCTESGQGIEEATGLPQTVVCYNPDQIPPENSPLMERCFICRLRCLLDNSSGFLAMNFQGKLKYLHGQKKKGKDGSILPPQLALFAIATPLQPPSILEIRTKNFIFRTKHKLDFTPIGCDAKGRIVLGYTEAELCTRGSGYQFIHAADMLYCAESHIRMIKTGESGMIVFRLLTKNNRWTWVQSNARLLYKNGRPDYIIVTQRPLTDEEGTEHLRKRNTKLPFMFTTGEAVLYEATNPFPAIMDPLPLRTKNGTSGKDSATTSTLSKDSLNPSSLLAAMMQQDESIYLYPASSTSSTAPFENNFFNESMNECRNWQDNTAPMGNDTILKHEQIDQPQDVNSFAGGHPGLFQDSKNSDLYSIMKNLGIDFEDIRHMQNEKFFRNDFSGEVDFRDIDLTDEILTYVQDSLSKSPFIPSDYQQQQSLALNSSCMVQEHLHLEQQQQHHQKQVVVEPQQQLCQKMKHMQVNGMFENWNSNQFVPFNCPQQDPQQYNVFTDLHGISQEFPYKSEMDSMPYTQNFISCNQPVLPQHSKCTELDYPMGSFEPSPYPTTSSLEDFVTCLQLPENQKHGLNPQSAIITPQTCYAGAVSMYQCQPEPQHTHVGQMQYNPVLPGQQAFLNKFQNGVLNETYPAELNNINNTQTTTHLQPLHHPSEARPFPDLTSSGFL

[3] = target: Mitogen-activated protein kinase 10 (Homo sapiens, UniProt P53779); assay: Dose response biochemical screening assay for inhibitors of c-Jun N-Terminal Kinase 3 (JNK3). [Related pubchem assays: 746 ]
Sequence of Mitogen-activated protein kinase 10 (P53779 whole entry): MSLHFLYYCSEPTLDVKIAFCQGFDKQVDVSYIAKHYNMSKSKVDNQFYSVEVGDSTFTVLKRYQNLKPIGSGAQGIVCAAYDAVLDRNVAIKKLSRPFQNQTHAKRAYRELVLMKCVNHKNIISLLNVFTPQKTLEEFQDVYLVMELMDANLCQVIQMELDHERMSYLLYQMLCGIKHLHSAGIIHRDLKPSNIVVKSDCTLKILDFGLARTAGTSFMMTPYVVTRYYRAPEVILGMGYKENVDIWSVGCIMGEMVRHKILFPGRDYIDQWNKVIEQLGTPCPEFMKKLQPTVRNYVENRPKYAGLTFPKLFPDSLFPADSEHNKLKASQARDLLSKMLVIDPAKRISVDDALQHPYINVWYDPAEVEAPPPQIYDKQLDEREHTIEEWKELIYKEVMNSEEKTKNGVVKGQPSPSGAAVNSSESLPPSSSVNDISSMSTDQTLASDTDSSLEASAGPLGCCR

INS1 = assay: beta cell apoptosis inhibitors, cytokine rescue, dose response, luminescence, retest (AID 449756); type: functional, cell-based; conditions: Rattus norvegicus;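 further: cell death triggered by IL-1 beta plus TNF-alpha plus IFN-gamma mixture; protective hits raise ATP signal compared with cytokine alone wells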
Galanin receptor type 2 = Galanin receptor type 2 (Homo sapiens, UniProt O43603); assay: Dose Response cell-based high-throughput screening assay to identify antagonists of galanin receptor 2 (GALR2). [Related pubchem assays: 828, 866 ]; type: functional
Sequence of Galanin receptor type 2 (O43603 whole entry): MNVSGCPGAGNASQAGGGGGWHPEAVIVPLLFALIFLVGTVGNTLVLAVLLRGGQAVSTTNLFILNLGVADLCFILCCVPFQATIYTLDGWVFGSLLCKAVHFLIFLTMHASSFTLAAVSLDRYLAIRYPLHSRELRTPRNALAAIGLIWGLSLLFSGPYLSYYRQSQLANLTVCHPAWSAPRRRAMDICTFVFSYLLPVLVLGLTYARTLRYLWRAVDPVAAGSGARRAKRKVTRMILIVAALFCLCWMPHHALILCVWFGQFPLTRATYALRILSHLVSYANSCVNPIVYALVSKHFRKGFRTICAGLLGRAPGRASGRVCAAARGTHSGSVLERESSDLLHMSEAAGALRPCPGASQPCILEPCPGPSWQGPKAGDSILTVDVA

[4] = HepG2 cell cytotoxicity, dose response, cytotoxicity control for Shn3 inhibitor project, CellTiter-Glo, cherry-picked (AID 624134); type: functional, cell-based
[5] = control 3'UTR Renilla luciferase suppression, dose response, counter-screen for Shn3 inhibitor project, cell-based, Clone20-Shn3RL, cherry-picked (AID 624133); type: functional
[6] = Shn3 3'UTR reporter inhibitors, dose response, cell-based, Clone20 osteoblasts, firefly luciferase, cherry-picked (AID 624132); type: functional;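 further: firefly luciferase luminescence from reporter carrying the Shn3 3'UTR in osteoblasts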
[7] = target: Protein-tyrosine kinase 2-beta (Homo sapiens, UniProt Q14289);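 further: potency of inhibitors of PYK2 kinase phosphorylation of poly-GT substrate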
Cytochrome P450 2C19 [8] = target: T3, Cytochrome P450 2C19 (Homo sapiens, UniProt P33261); assay: Cytochrome panel assay with activity outcomes. Panel member name: p450-cyp2c19 Compounds with AC50 equal or less than 10 uM are considered active; type: functional; conditions: read-out: AC50
T3 sequence (P33261 whole entry): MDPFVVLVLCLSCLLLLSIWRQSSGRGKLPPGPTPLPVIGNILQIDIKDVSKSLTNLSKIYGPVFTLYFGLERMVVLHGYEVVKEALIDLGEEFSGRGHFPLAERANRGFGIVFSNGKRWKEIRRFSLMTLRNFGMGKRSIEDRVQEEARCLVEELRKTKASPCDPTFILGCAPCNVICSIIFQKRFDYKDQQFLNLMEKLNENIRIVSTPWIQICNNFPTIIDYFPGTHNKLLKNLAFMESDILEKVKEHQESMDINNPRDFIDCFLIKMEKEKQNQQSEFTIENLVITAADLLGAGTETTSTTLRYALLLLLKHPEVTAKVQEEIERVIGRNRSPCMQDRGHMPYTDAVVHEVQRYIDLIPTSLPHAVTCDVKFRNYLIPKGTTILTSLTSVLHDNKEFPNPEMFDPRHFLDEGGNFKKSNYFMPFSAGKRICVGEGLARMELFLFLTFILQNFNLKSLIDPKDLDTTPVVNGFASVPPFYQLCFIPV

Cytochrome P450 2C9 = Cytochrome P450 2C9 (Homo sapiens, UniProt P11712)
Sequence of Cytochrome P450 2C9 (P11712 whole entry): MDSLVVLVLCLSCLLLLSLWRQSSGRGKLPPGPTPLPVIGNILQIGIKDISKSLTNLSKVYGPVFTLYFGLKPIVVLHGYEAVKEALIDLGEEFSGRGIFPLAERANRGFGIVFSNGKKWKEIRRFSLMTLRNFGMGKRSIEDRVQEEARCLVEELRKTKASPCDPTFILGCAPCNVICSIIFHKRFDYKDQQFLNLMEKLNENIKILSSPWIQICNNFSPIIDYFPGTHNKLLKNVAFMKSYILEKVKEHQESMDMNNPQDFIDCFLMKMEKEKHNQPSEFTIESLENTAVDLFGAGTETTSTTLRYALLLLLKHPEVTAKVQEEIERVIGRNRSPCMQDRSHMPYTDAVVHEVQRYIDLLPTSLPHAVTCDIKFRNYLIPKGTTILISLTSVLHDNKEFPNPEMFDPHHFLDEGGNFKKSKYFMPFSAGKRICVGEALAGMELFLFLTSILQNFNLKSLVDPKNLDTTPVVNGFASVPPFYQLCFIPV

Cytochrome P450 2D6 = Cytochrome P450 2D6 (Homo sapiens, UniProt P10635);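 further: CYP2D6 member of a cytochrome P450 panel assay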
Sequence of Cytochrome P450 2D6 (P10635 whole entry): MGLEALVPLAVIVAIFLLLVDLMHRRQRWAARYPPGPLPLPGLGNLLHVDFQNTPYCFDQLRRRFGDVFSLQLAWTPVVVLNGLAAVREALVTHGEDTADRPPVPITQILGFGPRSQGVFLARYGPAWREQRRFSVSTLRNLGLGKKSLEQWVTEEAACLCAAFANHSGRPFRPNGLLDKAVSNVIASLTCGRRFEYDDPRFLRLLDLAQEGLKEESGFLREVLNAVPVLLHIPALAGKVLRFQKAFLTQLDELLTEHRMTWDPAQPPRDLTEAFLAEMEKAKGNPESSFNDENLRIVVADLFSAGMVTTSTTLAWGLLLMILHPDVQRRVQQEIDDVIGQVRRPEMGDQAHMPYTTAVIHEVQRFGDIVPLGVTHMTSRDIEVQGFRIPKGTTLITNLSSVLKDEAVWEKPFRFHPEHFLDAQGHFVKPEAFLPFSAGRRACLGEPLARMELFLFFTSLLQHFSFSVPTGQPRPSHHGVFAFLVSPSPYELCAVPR

[9] = target: 5-hydroxytryptamine receptor 1A (Homo sapiens, UniProt P08908); type: functional
Sequence of 5-hydroxytryptamine receptor 1A (P08908 whole entry): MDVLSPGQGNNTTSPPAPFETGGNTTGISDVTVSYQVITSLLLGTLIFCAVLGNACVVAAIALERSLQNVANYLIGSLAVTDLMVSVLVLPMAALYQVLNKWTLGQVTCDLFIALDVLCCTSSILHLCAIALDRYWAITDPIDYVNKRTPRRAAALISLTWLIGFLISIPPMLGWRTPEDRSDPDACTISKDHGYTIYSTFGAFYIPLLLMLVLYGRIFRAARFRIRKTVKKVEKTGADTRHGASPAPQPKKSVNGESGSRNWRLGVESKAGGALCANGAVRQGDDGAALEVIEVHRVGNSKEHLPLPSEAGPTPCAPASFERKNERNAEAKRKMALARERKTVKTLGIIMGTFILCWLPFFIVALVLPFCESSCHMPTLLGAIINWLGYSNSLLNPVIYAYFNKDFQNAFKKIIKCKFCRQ

[10] = target: Photoreceptor-specific nuclear receptor (Homo sapiens, UniProt Q9Y5X4); assay: NR2E3 inverse agonists, dose response, biochemical, TR-FRET (AID 463256); type: functional
Sequence of Photoreceptor-specific nuclear receptor (Q9Y5X4 whole entry): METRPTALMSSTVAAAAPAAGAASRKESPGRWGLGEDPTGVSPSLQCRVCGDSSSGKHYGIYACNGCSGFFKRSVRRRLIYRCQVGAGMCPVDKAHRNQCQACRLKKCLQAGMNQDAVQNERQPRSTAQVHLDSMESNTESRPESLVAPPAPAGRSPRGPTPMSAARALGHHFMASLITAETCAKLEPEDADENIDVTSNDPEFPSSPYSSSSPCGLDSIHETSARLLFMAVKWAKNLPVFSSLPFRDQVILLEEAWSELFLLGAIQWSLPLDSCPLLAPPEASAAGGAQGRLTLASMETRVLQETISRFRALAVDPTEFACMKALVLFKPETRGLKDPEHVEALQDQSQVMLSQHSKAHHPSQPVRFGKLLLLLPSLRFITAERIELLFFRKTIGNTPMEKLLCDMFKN

[11] = target: Peroxisome proliferator-activated receptor gamma/Nuclear receptor corepressor 2 (Homo sapiens, UniProt P37231+Q9Y618); assay: Counterscreen for NR2E3 inverse agonists: TR-FRET-based biochemical high throughput dose response assay to identify inverse agonists of the interaction between peroxisome proliferator-activated receptor gamma (PPARg) and nuclear receptor co-repressor 2 (NCOR2).; type: functional
Cytochrome P450 2C19 [12] = target: T3, Cytochrome P450 2C19; assay: qHTS Assay for Inhibitors and Substrates of Cytochrome P450 2C19. [Related pubchem assays: 410 ]; type: ADME; conditions: read-out: Potency
Streptococcus = assay: Group A Streptococcus viability loss, dose response, counter-screen for streptokinase expression inhibitor project, luminescence, BacTiterGlo (AID 1915); type: functional, organism-based;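 further: potency for reduction of bacterial viability or growth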
Streptokinase A = target: T4, Streptokinase A (Streptococcus pyogenes serotype M1, UniProt P10520); assay: S. pyogenes streptokinase expression inhibitors, potency, dose response, plasminogen activation absorbance, OD405 (AID 1914); type: functional, Streptococcus pyogenes M1 GAS;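 further: secreted streptokinase activity via plasminogen activation per viability signal from cell pellet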
T4 sequence (P10520 whole entry): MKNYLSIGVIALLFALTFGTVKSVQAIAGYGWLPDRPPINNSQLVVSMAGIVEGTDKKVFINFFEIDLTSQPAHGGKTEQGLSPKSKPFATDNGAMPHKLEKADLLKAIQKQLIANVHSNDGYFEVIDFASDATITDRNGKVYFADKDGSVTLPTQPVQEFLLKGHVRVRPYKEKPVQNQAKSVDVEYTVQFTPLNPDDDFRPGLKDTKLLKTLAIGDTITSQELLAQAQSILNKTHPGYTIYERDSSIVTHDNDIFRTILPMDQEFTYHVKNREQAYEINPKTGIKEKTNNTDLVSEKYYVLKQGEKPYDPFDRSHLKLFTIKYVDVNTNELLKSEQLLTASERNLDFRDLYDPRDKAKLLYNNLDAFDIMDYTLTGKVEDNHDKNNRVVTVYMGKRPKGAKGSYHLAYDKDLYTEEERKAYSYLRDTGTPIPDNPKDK

[13] = cytotoxicity in HEK-293T cells, dose response, cytotoxicity control for TCR NF-kB inhibitor project, luminescence, T-cell screen hits (AID 489026); type: functional, cell-based;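 further: cells exposed to compound about 14 hours before the viability readout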
[14] = target: T5, Tyrosine-protein phosphatase non-receptor type 7 (Homo sapiens, UniProt P35236); assay: inhibitors of human HePTP phosphatase, […], biochemical, absorbance, leukemia target (AID 521); type: functional
T5 sequence (P35236 whole entry): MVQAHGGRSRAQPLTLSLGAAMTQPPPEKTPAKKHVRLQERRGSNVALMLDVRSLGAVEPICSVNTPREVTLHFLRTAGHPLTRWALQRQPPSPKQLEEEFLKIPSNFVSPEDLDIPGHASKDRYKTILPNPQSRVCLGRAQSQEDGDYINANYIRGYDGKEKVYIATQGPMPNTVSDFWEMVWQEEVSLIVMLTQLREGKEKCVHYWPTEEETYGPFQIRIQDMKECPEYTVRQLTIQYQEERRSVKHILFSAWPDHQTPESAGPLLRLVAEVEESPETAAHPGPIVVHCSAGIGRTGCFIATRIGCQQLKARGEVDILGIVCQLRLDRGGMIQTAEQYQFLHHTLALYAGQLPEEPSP

Sequence of 14-3-3 protein gamma (P61981 whole entry): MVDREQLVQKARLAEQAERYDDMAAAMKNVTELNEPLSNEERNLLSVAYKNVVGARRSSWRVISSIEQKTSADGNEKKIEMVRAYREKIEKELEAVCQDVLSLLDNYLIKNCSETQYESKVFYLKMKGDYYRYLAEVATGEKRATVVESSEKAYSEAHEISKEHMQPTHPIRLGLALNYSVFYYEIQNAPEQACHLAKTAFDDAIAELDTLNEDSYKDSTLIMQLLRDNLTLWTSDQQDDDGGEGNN
Sequence of Procathepsin L (P07711 whole entry): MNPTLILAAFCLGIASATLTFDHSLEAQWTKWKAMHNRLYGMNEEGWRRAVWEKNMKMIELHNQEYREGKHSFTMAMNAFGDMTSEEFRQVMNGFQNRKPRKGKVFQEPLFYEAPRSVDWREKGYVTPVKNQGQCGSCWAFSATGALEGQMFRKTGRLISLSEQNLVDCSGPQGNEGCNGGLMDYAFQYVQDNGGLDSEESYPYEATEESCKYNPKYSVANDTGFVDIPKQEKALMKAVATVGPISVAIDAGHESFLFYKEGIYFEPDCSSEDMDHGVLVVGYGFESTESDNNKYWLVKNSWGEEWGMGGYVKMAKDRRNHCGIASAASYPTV

With Cc1nc2nc(Cc3ccccc3)nn2c(O)c1Cc1ccccc1 the IC50 (14-3-3 protein gamma) was > 50 µM (not active).
With Cc1c(O)n(-c2ccccc2)c(SCC(=O)Nc2ccc3c4c(cccc24)CC3)nc1=O the IC50 (Procathepsin L) was > 59.6 µM (not active), the IC50 (Leucine aminopeptidase) was 5.11 µM (active) and the IC50 (Aspartyl aminopeptidase) was > 73.5 µM (not active).
For O=C(NC1CC1)c1ccc(-n2sc3ccccc3c2=O)cc1, the IC50 [1] was 11.4 µM (active).
With NC(=O)c1oc2ccccc2c1NC(=O)c1ccc(F)cc1 the EC50 [2] was 4.12 µM (active) and the IC50 [3] was 23.9 µM (not active).
With Cc1cccc(C(=O)Nc2ccc(C(=O)/C=C/c3cccnc3)cc2)c1 the AC50 (INS1) was 5.53 µM (active), the IC50 (Galanin receptor type 2) was 21.4 µM (not active) and the AC50 [4] was 30.9 µM (active). The AC50 [5] was 10.7 µM (active) and the AC50 [6] was 6.23 µM (active).
In the case of O=C(NCCc1c[nH]c2ccccc12)C1CCN(c2nnc(N3CCCC3=O)s2)CC1, the IC50 [7] is reported as 22.7 µM (not active), the AC50 (Cytochrome P450 2C19 [8]) is reported as 7.94 µM (inconclusive) and the AC50 (Cytochrome P450 2C9) is reported as 10 µM (inconclusive). For the same compound, the AC50 (Cytochrome P450 2D6) was 10 µM (inconclusive).
With O=S(=O)(c1cccc(Cl)c1)N1CCCC1 the EC50 [9] was > 50 µM (not active).
With COc1ccc(-n2nc(C(=O)NCC(=O)NCc3ccc(F)cc3)c3ccccc3c2=O)cc1OC the IC50 [10] was 1.46 µM (active) and the IC50 [11] was 0.941 µM (active).
For COC(=O)C(C(C)=O)C(NC(=O)NCc1ccccc1)c1ccccc1 (centres undefined), the AC50 (Cytochrome P450 2C19 [12]) was 1.26 µM (inconclusive).
With COc1cccc2sc(Nc3nnc(-c4ccccc4Cl)o3)nc12 the EC50 (Streptococcus) was > 150 µM (inconclusive), the EC50 (Streptokinase A) was > 150 µM (not active) and the IC50 [13] was 61.1 µM (inactive). For the same compound, the IC50 [14] was > 100 µM (not active).

Source: ChEMBL document CHEMBL1201862, “PubChem BioAssay data set” (2004)
